According to patent US12157741B2, “Macrocyclic inhibitors of DYRK1A” (DANA-FARBER CANCER INSTITUTE, INC., priority 2018, dated 2024):
Like-named read-outs stand apart in the source and are kept apart here.

Legend:
Format in all cases: binding
various enzymes [1] = molecular target: various enzymes (Homo sapiens, UniProt P10721, L576P)
Method: (§1) Ambit profiling was conducted in accordance with the manufacturer's instructions.

various enzymes [2] = molecular target: various enzymes (Homo sapiens, UniProt O14730); settings: compound 1 uM
Method: as §1

various enzymes [3] = molecular target: various enzymes (Homo sapiens, UniProt Q9P289); settings: compound 1 uM
Method: as §1

various enzymes [4] = molecular target: various enzymes (Homo sapiens, UniProt P08581, M1250T)
Method: as §1

various enzymes [5] = molecular target: various enzymes (Homo sapiens, UniProt Q00535); settings: compound 1 uM
Sequence of various enzymes (Homo sapiens, UniProt Q00535) (Q00535 whole entry): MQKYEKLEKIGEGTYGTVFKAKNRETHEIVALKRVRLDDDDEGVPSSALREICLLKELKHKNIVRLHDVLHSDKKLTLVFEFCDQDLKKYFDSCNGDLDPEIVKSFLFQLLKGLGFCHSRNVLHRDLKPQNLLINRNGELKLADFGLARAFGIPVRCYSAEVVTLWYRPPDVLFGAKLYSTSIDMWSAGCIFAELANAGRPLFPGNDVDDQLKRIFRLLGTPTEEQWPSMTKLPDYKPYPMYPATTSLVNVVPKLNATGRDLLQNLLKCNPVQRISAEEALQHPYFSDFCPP
Method: as §1

various enzymes [6] = molecular target: various enzymes (Homo sapiens, UniProt Q99759); settings: compound 1 uM
Method: as §1

various enzymes [7] = molecular target: various enzymes (Homo sapiens, UniProt Q15139); settings: compound 1 uM
Method: as §1

various enzymes [8] = molecular target: various enzymes (Homo sapiens, UniProt Q99558); settings: compound 1 uM
Method: as §1

various enzymes [9] = molecular target: various enzymes (Homo sapiens, UniProt Q99755); settings: compound 1 uM
Sequence of various enzymes (Homo sapiens, UniProt Q99755) (Q99755 whole entry): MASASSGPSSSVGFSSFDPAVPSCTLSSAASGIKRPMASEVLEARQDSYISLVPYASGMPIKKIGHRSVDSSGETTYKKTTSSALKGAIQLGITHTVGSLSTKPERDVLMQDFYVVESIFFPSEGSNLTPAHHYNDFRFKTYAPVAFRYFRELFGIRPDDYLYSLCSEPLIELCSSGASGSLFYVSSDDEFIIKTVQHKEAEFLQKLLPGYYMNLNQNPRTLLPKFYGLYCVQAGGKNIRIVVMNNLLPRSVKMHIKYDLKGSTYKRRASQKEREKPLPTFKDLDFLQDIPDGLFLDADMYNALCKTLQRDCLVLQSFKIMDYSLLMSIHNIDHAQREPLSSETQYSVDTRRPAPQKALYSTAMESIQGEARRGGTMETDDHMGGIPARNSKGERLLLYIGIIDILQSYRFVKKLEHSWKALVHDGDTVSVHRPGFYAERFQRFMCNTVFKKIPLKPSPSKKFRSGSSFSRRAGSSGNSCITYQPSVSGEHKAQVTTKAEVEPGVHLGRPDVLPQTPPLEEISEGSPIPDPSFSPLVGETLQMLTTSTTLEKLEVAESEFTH
Method: as §1

various enzymes [10] = molecular target: various enzymes (Homo sapiens, UniProt Q13233); settings: compound 1 uM
Method: as §1

various enzymes [11] = molecular target: T1, various enzymes (Homo sapiens, UniProt Q9H093); settings: compound 1 uM
T1 sequence (Q9H093 1-628): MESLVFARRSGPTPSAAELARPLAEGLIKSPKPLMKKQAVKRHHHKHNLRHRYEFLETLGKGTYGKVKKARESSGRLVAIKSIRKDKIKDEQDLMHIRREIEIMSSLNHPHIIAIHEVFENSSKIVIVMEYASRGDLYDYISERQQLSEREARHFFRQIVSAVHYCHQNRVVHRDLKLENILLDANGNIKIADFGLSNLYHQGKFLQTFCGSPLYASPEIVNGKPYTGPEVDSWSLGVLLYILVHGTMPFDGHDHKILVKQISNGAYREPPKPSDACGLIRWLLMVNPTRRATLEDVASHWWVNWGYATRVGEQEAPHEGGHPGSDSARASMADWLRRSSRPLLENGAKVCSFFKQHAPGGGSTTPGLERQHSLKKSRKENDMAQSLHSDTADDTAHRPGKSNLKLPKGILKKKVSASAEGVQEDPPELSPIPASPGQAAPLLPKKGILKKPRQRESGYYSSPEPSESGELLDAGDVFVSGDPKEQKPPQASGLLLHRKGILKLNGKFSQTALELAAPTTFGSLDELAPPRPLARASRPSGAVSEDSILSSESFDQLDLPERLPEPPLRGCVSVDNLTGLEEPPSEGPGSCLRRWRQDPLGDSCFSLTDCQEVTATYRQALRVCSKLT
Method: as §1

various enzymes [12] = molecular target: various enzymes (Homo sapiens, UniProt Q9Y616); settings: compound 1 uM
Method: as §1

various enzymes [13] = molecular target: various enzymes (Homo sapiens, UniProt P49759); settings: compound 1 uM
Method: as §1

various enzymes [14] = molecular target: various enzymes (Homo sapiens, UniProt P29597); settings: compound 1 uM
Sequence of various enzymes (Homo sapiens, UniProt P29597) (P29597 whole entry): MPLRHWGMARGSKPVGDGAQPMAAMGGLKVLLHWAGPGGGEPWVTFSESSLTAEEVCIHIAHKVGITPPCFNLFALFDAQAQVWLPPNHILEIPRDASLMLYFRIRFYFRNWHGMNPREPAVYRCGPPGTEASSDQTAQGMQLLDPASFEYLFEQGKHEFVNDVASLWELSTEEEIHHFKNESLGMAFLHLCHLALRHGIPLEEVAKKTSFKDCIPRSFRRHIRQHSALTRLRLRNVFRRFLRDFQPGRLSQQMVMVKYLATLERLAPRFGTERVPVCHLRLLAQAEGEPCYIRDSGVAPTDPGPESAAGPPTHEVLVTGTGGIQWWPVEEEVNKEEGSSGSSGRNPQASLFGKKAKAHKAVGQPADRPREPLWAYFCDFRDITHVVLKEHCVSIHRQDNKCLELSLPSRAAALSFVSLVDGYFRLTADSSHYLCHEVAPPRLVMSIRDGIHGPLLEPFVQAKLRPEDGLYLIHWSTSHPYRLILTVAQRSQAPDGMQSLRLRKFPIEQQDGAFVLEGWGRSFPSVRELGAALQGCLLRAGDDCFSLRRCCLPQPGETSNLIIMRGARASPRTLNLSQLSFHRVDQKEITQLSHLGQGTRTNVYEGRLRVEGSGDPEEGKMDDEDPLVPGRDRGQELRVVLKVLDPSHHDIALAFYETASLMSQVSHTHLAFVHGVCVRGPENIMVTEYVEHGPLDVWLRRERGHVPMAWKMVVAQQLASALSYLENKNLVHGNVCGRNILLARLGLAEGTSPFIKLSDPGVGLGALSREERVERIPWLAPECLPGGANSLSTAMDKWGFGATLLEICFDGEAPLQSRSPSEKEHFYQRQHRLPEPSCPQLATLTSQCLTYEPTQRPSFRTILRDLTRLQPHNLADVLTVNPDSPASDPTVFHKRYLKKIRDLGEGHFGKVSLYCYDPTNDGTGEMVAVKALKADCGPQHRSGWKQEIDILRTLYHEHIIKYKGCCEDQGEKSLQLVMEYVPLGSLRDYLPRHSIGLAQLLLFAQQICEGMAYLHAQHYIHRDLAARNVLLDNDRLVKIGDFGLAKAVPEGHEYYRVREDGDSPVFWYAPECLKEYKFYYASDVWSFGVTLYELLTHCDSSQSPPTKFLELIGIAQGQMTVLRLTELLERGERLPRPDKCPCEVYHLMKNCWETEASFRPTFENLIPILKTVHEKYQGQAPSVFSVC
Method: as §1

various enzymes [15] = molecular target: various enzymes (Homo sapiens, UniProt P42336, I800L)
Method: as §1

various enzymes [16] = molecular target: various enzymes (Homo sapiens, UniProt Q00536); settings: compound 1 uM
Sequence of various enzymes (Homo sapiens, UniProt Q00536) (Q00536 whole entry): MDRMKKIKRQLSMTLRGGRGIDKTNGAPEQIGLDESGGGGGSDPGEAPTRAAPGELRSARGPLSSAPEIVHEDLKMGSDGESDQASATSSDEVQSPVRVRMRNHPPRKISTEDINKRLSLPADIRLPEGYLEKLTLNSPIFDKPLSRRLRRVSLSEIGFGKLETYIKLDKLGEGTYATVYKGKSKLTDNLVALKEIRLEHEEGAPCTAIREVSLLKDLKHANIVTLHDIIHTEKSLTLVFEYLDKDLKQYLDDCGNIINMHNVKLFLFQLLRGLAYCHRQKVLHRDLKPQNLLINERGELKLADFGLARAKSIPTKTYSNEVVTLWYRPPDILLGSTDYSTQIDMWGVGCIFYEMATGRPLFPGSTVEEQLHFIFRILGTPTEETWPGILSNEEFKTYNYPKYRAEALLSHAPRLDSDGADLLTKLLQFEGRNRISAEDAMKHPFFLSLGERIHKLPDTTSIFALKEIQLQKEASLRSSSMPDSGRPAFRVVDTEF
Method: as §1

various enzymes [17] = molecular target: various enzymes (Homo sapiens, UniProt Q9C098); settings: compound 1 uM
Method: as §1

various enzymes [18] = molecular target: various enzymes (Homo sapiens, UniProt Q86Y07); settings: compound 1 uM
Method: as §1

various enzymes [19] = molecular target: various enzymes (Homo sapiens, UniProt Q9UKE5); settings: compound 1 uM
Method: as §1

various enzymes [20] = molecular target: T2, various enzymes (Homo sapiens, UniProt P36888, F691L, form not given)
T2 construct: other: FLT3(ITD, F691L); 1 uM; other: compound 1 uM
Method: as §1

various enzymes [21] = molecular target: various enzymes (Homo sapiens, UniProt O14936); settings: compound 1 uM
Sequence of various enzymes (Homo sapiens, UniProt O14936) (O14936 whole entry): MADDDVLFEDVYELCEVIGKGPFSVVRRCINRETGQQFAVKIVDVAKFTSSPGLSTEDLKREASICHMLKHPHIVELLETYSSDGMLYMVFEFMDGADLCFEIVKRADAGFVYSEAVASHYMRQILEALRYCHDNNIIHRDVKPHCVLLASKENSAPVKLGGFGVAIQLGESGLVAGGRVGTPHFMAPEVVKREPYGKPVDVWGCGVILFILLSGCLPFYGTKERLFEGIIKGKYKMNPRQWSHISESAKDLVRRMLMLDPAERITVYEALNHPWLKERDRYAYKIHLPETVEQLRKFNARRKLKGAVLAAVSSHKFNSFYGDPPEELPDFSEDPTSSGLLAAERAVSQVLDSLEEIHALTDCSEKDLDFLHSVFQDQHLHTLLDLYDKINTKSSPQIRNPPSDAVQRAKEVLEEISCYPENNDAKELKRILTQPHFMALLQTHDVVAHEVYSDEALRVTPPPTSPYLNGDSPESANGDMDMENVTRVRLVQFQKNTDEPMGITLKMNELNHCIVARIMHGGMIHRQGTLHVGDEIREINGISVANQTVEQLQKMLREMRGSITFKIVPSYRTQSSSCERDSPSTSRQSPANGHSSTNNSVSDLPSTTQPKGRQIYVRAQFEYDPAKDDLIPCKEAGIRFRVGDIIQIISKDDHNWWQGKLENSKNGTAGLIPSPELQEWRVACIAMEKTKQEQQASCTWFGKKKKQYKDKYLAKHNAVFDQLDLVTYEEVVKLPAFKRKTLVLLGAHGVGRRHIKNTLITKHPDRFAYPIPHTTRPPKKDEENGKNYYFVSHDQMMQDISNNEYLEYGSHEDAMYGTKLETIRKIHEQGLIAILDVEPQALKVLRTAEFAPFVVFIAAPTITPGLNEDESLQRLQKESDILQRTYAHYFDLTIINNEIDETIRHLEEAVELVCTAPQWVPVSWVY
Method: as §1

various enzymes [22] = molecular target: various enzymes (Homo sapiens, UniProt P00533); settings: compound 1 uM
Method: as §1

various enzymes [23] = molecular target: various enzymes (Homo sapiens, UniProt Q9NRP7); settings: compound 1 uM
Method: as §1

various enzymes [24] = molecular target: various enzymes (Homo sapiens, UniProt P21709); settings: compound 1 uM
Method: as §1

various enzymes [25] = molecular target: various enzymes (Homo sapiens, UniProt Q9UK32); settings: compound 1 uM
Sequence of various enzymes (Homo sapiens, UniProt Q9UK32) (Q9UK32 whole entry): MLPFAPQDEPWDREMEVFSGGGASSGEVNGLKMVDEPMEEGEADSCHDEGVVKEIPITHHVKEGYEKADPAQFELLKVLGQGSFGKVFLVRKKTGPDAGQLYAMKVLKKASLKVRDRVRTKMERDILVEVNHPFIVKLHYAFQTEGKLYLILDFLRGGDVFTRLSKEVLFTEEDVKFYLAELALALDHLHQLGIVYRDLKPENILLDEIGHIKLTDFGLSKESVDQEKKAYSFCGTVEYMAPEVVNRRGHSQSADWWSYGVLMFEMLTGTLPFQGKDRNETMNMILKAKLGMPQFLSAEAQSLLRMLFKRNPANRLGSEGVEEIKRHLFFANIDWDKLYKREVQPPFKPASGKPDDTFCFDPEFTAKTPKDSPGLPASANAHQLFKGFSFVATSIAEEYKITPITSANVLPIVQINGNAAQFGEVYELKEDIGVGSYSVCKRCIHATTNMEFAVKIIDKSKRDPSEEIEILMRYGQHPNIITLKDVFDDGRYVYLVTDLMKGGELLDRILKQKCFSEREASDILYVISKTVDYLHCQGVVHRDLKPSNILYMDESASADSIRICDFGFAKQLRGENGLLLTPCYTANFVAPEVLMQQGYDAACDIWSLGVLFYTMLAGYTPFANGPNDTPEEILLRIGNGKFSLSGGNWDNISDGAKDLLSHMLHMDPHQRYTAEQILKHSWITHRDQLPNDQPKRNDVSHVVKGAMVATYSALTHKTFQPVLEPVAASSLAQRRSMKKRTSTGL
Method: as §1

various enzymes [26] = molecular target: various enzymes (Homo sapiens, UniProt Q8IY84); settings: compound 1 uM
Method: as §1

various enzymes [27] = molecular target: various enzymes (Homo sapiens, UniProt P42336, M1043I)
Method: as §1

various enzymes [28] = molecular target: various enzymes (Homo sapiens, UniProt Q08345); settings: compound 1 uM
Method: as §1

various enzymes [29] = molecular target: various enzymes (Homo sapiens, UniProt O75460); settings: compound 1 uM
Method: as §1

various enzymes [30] = molecular target: various enzymes (Homo sapiens, UniProt Q02750); settings: compound 1 uM
Sequence of various enzymes (Homo sapiens, UniProt Q02750) (Q02750 whole entry): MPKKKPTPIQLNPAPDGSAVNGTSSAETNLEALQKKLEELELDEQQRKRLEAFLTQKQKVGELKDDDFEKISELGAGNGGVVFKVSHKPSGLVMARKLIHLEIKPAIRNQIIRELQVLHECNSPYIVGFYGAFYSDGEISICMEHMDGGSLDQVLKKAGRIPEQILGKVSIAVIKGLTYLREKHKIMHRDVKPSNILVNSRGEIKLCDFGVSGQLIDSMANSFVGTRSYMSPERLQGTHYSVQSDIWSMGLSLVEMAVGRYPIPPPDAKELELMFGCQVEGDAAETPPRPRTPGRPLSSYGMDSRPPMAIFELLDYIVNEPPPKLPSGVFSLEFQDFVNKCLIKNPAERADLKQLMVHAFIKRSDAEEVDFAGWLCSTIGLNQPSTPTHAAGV
Method: as §1

various enzymes [31] = molecular target: various enzymes (Homo sapiens, UniProt Q9BX84); settings: compound 1 uM
Method: as §1

various enzymes [32] = molecular target: various enzymes (Homo sapiens, UniProt Q9Y463); settings: compound 1 uM
Method: as §1

various enzymes [33] = molecular target: various enzymes (Homo sapiens, UniProt Q13557); settings: compound 1 uM
Method: as §1

various enzymes [34] = molecular target: various enzymes (Homo sapiens, UniProt Q6P2M8); settings: compound 1 uM
Sequence of various enzymes (Homo sapiens, UniProt Q6P2M8) (Q6P2M8 whole entry): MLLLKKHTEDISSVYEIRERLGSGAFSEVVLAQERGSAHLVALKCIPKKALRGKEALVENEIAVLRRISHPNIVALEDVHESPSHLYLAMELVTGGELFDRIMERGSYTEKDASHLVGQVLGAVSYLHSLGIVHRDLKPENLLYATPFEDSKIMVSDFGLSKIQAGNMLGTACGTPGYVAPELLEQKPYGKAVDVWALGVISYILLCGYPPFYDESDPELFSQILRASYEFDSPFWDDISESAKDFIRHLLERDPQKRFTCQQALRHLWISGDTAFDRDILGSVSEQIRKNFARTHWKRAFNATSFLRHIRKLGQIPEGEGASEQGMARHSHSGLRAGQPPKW
Method: as §1

various enzymes [35] = molecular target: various enzymes (Homo sapiens, UniProt Q9UBE8); settings: compound 1 uM
Method: as §1

CC(C)N1Cc2nn(C)cc2-c2cnc3[nH]cc(c3c2)-c2cn(nc2C(F)(F)F)CCCC1=O [Compound 45, (Z)-5-isopropyl-31-methyl-13-(trifluoromethyl)-11H,21H,31H-5-aza-2(3,5)-pyrrolo[2,3-b]pyridina-1(4,1),3(4,3)-dipyrazolacyclononaphan-6-one]
Ambit profiling: KIT(L576P) (various enzymes [1]; compound 1 uM): 4.5
Ambit profiling: RIOK3 (various enzymes [2]): 6
Ambit profiling: MST4 (various enzymes [3]): 24
Ambit profiling: MET(M1250T) (various enzymes [4]; compound 1 uM): 4.3
Ambit profiling: CDK5 (various enzymes [5]): 86
Ambit profiling: MAP3K3 (various enzymes [6]): 0.35
Ambit profiling: PRKD1 (various enzymes [7]): 36
Ambit profiling: NIK (various enzymes [8]): 94
Ambit profiling: PIP5K1A (various enzymes [9]): 27
Ambit profiling: MAP3K1 (various enzymes [10]): 95
Ambit profiling: SNARK (various enzymes [11]): 14
Ambit profiling: IRAK3 (various enzymes [12]): 2.6
Ambit profiling: CLK1 (various enzymes [13]): 9.9
Ambit profiling: TYK2(JH1domain-catalytic) (various enzymes [14]): 19
Ambit profiling: TYK2(JH2domain-pseudokinase) (various enzymes [14]): 100
Ambit profiling: PIK3CA(I800L) (various enzymes [15]; compound 1 uM): 87
Ambit profiling: PCTK1 (various enzymes [16]): 20
Ambit profiling: DCAMKL3 (various enzymes [17]): 19
Ambit profiling: VRK2 (various enzymes [18]): 37
Ambit profiling: TNIK (various enzymes [19]): 5.6
Ambit profiling: FLT3(ITD, F691L) (various enzymes [20]; compound 1 uM): 0
Ambit profiling: CASK (various enzymes [21]): 7.4
Ambit profiling: EGFR (various enzymes [22]): 29
Ambit profiling: STK36 (various enzymes [23]): 100
Ambit profiling: EPHA1 (various enzymes [24]): 26
Ambit profiling: RSK4(Kin.Dom.1-N-terminal) (various enzymes [25]): 2.6
Ambit profiling: RSK4(Kin.Dom.2-C-terminal) (various enzymes [25]): 95
Ambit profiling: NIM1 (various enzymes [26]): 100
Ambit profiling: PIK3CA(M1043I) (various enzymes [27]; compound 1 uM): 81
Ambit profiling: DDR1 (various enzymes [28]): 0.15
Ambit profiling: ERN1 (various enzymes [29]): 90
Ambit profiling: MEK1 (various enzymes [30]): 17
Ambit profiling: TRPM6 (various enzymes [31]): 83
Ambit profiling: DYRK18 (various enzymes [32]): 0.55
Ambit profiling: CAMK2D (various enzymes [33]): 15
Ambit profiling: CAMK1B (various enzymes [34]): 25
Ambit profiling: NLK (various enzymes [35]): 84

COc1c2c(nn1C)CN(C(C)C)C(=O)CCCn1cc(c(C(F)(F)F)n1)-c1c[nH]c3ncc-2cc13 [Compound 50, (Z)-5-isopropyl-35-methoxy-31-methyl-13-(trifluoromethyl)-11H,21H,31H-5-aza-2(3,5)-pyrrolo[2,3-b]pyridina-1(4,1),3(4,3)-dipyrazolacyclononaphan-6-one]
Ambit profiling: KIT(L576P) (various enzymes [1]): 4
Ambit profiling: RIOK3 (various enzymes [2]): 11
Ambit profiling: MST4 (various enzymes [3]): 60
Ambit profiling: MET(M1250T) (various enzymes [4]): 4.2
Ambit profiling: CDK5 (various enzymes [5]): 89
Ambit profiling: MAP3K3 (various enzymes [6]): 0.3
Ambit profiling: PRKD1 (various enzymes [7]): 33
Ambit profiling: NIK (various enzymes [8]): 86
Ambit profiling: PIP5K1A (various enzymes [9]): 19
Ambit profiling: MAP3K1 (various enzymes [10]): 72
Ambit profiling: SNARK (various enzymes [11]): 47
Ambit profiling: IRAK3 (various enzymes [12]): 15
Ambit profiling: CLK1 (various enzymes [13]): 18
Ambit profiling: TYK2(JH1domain-catalytic) (various enzymes [14]): 19
Ambit profiling: TYK2(JH2domain-pseudokinase) (various enzymes [14]): 84
Ambit profiling: PIK3CA(I800L) (various enzymes [15]): 86
Ambit profiling: PCTK1 (various enzymes [16]): 66
Ambit profiling: DCAMKL3 (various enzymes [17]): 56
Ambit profiling: VRK2 (various enzymes [18]): 20
Ambit profiling: TNIK (various enzymes [19]): 13
Ambit profiling: FLT3(ITD, F691L) (various enzymes [20]): 0
Ambit profiling: CASK (various enzymes [21]): 36
Ambit profiling: EGFR (various enzymes [22]): 27
Ambit profiling: STK36 (various enzymes [23]): 100
Ambit profiling: EPHA1 (various enzymes [24]): 29
Ambit profiling: RSK4(Kin.Dom.1-N-terminal) (various enzymes [25]): 2.3
Ambit profiling: RSK4(Kin.Dom.2-C-terminal) (various enzymes [25]): 74
Ambit profiling: NIM1 (various enzymes [26]): 100
Ambit profiling: PIK3CA(M1043I) (various enzymes [27]): 86
Ambit profiling: DDR1 (various enzymes [28]): 0.35
Ambit profiling: ERN1 (various enzymes [29]): 71
Ambit profiling: MEK1 (various enzymes [30]): 12
Ambit profiling: TRPM6 (various enzymes [31]): 100
Ambit profiling: DYRK1B (various enzymes [32]): 5.2
Ambit profiling: CAMK2D (various enzymes [33]): 20
Ambit profiling: CAMK1B (various enzymes [34]): 16
Ambit profiling: NLK (various enzymes [35]): 84
